According to patent US20080260834A1, “VITAMIN D3 ANALOG LOADED POLYMER FORMULATIONS FOR CANCER AND NEURODEGENERATIVE DISORDERS” (priority 2002, published 2008):
Read-outs that look alike come from different tables or passages of the source.

Tests used:
B16 (malignant melanoma) = assay: In vitro proliferation assay, B16; type: cell-based, murine
Description: (§1) All cell lines were grown and propagated in RPMI medium at 37° C. in 5% CO2. Cultured cells were trypsinized and plated in triplicate at 10,000 cells/well in Falcon 24 well tissue culture plates. […] When control wells neared confluence, cell number was determined for each well as an average of two readings on a ZM Coulter Counter Results are expressed as the average cell number for each drug treatment group divided by the average cell number for the drug free control group (designated as % OF CONTROL) vs. the concentration of drug or analog.

[1] = test system: RENCA (renal cell carcinoma); assay: In vitro proliferation assay, RENCA; type: cell-based, murine
Description: as §1

[2] = test system: EMT6 (breast cell carcinoma); assay: In vitro proliferation assay, EMT6; type: cell-based, murine
Description: as §1

CT26 (colon carcinoma) = assay: In vitro proliferation assay, CT26; type: cell-based, murine; conditions: at 1000 nM against CT26 (p<0.01, data not shown)
Description: as §1

B16 melanoma cells = assay: Exposure time dependence study, B16; type: cell-based, murine; conditions: 10 μM; exposure 1, 2, 10, 24, 96 hours; counted at 96 hours
Description: In a series of exposure time dependence studies, B16 melanoma cells were trypsinized, suspended, and plated as before. […] Then at 1, 2, 10, 24, and 96 hours, the drug containing media was removed and replaced with fresh media containing only solvent. […] At the 96 hour time point, all groups were trypsinized and cell number was determined as before.

[3] = Calcemic activity, daily intraperitoneal injections in mice; type: in vivo, C57/B16 mice; conditions: for weight loss: 7 days; for blood ionized calcium: day 7
Description: Twenty-seven C57/B16 mice (n=3 per group), received daily intraperitoneal injections solution containing one of the three drugs at on of the following doses: […] (corresponding to 0.02, 0.2, or 2 mg/day respectively). Nine animals received daily intraperitoneal injections of solvent only to serve as control. Animal weights were monitored daily at the time of injection. On day 7, all animals were sacrificed and blood was collected via cardiac puncture and quantitatively analyzed for ionized calcium content at the Critical Care Lab at Johns Hopkins Hospital.

[4] = Hypercalcemic toxicity of wafers, intraflank vs intracranial; type: in vivo,  mice; conditions: 5 mg pCPP:SA wafer loaded 0.1%; for weight loss: 7 days; for blood ionized calcium levels: day 7
Text: Animal weights were monitored daily and blood was collected for quantitative ionized calcium analysis via cardiac puncture on day 7 post-implantation.

[5] = cited from earlier work

SMILES: C=C1/C(=C\C=C2/CCCC3(C)[C@@H]([C@H](C)CCCC(C)(C)O)CC[C@@H]23)C[C@@H](O)CC1O (some centres unmarked) [1,25 D3, 1,25-Dihydroxyvitamin D3]
- EC50 (B16 (malignant melanoma); Mus musculus): 15 nM
- antiproliferative activity (B16 (malignant melanoma); at 10 nM against B16 (p<0.03)): significant antiproliferative activity
- EC50 ([1]; Mus musculus, Renca): 153 nM
- antiproliferative activity ([1]; at 10 nM against RENCA (p<0.03)): significant antiproliferative activity
- EC50 ([2]; Mus musculus, EMT6): 160 nM
- antiproliferative activity ([2]; at 100 nM against EMT6 (p<0.01)): significant antiproliferative activity
- antiproliferative activity (CT26 (colon carcinoma)): significant antiproliferative activity
- exposure time dependence of antiproliferative activity (B16 melanoma cells): exposure time dependent
- weight loss ([3]; 1 mg/kg/day i.p.): substantial weight loss
- blood ionized calcium ([3]; 1 mg/kg/day i.p.): dramatic rises in blood ionized calcium levels
- weight loss ([3]; 10 mg/kg/day i.p.): substantial weight loss
- blood ionized calcium ([3]; 10 mg/kg/day i.p.): dramatic rises in blood ionized calcium levels
- condition of the animals ([3]; 100 mg/kg/day i.p.): severely compromised
- weight loss ([4]; intracranial): substantial weight loss
- blood ionized calcium levels ([4]; intracranial): dramatic rises in blood ionized calcium levels
- weight loss ([4]; intraflank): substantial weight loss
- blood ionized calcium levels ([4]; intraflank): dramatic rises in blood ionized calcium levels
- serum calcium ([5]; 60 ng/day i.c.v., after 6 days): rise in serum calcium
- weight loss ([5]; 120 ng/day i.c.v.): weight loss was observed
- condition of the animals ([5]; 240 ng/day i.c.v., by day 6): severely compromised
